Columns and labels:
[1] = tested on: carrageenan-induced paw edema; experiment: Carrageenin-induced acute inflammation (paw edema) in mice; format: in vivo, CD-1 mice; conditions: oral; for % inhibition (hind paw edema): 1 h before intra-plantar carrageenan, edema 4 h after, compositions 1-4 250 mg/kg total, Aspirin 150, Phenylbutazone 30, Celebrex 10, Naproxen 30 mg/kg; for anti-inflammatory activity in carrageenan-induced paw edema assay: doses as in Table V
Protocol: Male CD-1 (Crl.) derived mice weighing 22±1 g were obtained from BioLasco Taiwan (under Charles River Laboratories Technology Licensee). All animals were housed in a controlled temperature (22° C.-24° C.) and humidity (60%-80%) environment with 12 hours light/dark cycles for at least one week prior to experimental use. The animals had free access to standard lab chow for mice (MF-18 (Oriental Yeast Co., Ltd., Japan) and Reverse Osmosis water was granted. All aspects of the study including housing, experimentation and disposal of animals were performed in general accordance with the Guide for the Care and Use of Laboratory Animals (National Academy Press, Washington, D.C., 1996). Groups of 5 CD-1 male mice were fasted overnight prior to use. The test substances were administered orally one hour before intra-plantar injection of the right hind paw with carrageenan (50 μl of 1% suspension).

[2] = tested on: Complete Freund's Adjuvant-induced arthritis (hind paw volume); experiment: Adjuvant-induced arthritis in rats; format: in vivo, Lewis rats; conditions: reference drugs oral once daily for 5 days: Phenylbutazone 35, Celebrex 10, Dexamethasone 5 mg/kg
Protocol: The study was conducted in male Lewis rats obtained from Charles River Japan, Inc. The animals were housed in a controlled temperature (21° C.-24° C.) and humidity (54%-68%) environment with 12 hour light/dark cycles for at least 1 week prior to use. Rats had Laboratory Rodent Diet MF-18 (Oriental Yeast Co., Ltd., Japan) and water (reverse osmosis purified water) ad libitum. The entire study and animal conditions and manipulations were conducted in accordance with the Guide for the Care and Use of Laboratory Animals (National Academy Press, Washington, D.C., 1996).
Eight groups of 5 rats weighing approximately 210±10 g were used. […] A dosing volume of 10 ml/kg was used. A well-ground suspension of killed Mycobacterium tuberculosis (0.3 mg in 0.1 ml of light mineral oil (CFA) was administered in a single dose into the subplantar region of the right hind paw 1 hour following the first dose of the test and reference compositions.
Right hind paw volume was measured 4 hours after single CFA injection (denoted day 1), and on day 5 (acute phase), while the left hind paw (without CFA) volume was measured on day 14 and 18 (delayed phase). Hind paw volume was measured by plethysmometer and water cell (25 mm diameter).

[3] = tested on: knee pain associated with arthrosis
Text: A 10 year old Husky with a history of bilateral rupture of the cruciate ligament had bilateral knee surgery to correct this problem. The animal was also known to have zinc deficiency.
The dog was prescribed metacam for knee pain associated with arthrosis.

**Q.** Which results are given for `CC(=O)Oc1ccccc1C(=O)O` [Aspirin]?
**A.** % inhibition (hind paw edema) [1]: 36%; anti-inflammatory activity in carrageenan-induced paw edema assay [1]: significant anti-inflammatory activity

**Q.** Which “% inhibition (hind paw edema)” value [1] does the source give for `Cc1ccc(-c2cc(C(F)(F)F)nn2-c2ccc(S(N)(=O)=O)cc2)cc1` [Celebrex] here?
**A.** The value was 23%.

**Q.** And the “anti-inflammatory activity in carrageenan-induced paw edema assay” value [1]?
**A.** The value was “significant anti-inflammatory activity”.

**Q.** What about the “% inhibition Day 14-0” value [2] of the same compound?
**A.** The value was 20%.

**Q.** And the “% inhibition Day 18-0” value [2]?
**A.** The value was 25%.

**Q.** And the “% inhibition Day 18-14” value [2]?
**A.** Its value is 30%.

**Q.** How did the “% inhibition (hind paw edema)” value [1] turn out when `COc1ccc2cc([C@H](C)C(=O)O)ccc2c1` [Naproxen] was run?
**A.** The value was 36%.

**Q.** What about the “anti-inflammatory activity in carrageenan-induced paw edema assay” value [1] of the same compound?
**A.** The value was “significant anti-inflammatory activity”.

**Q.** What does the source list for `CCCCC1C(=O)N(c2ccccc2)N(c2ccccc2)C1=O` [Phenylbutazone]?
**A.** % inhibition (hind paw edema) [1]: 23%; % inhibition Day 14-0 [2]: 18, 18, 18%; % inhibition Day 18-0 [2]: 18, 18, 18%; % inhibition Day 18-14 [2]: 18, 18, 18%

**Q.** With `Cc1cnc(NC(=O)C2=C(O)c3ccccc3S(=O)(=O)N2C)s1` [metacam] as the compound, how does the “pain control / pain relief (clinical examination)” value ([3]; 10 year old Husky, composition #8 1 gram per 10 kg body weight daily, a few weeks) read?
**A.** Its value is “only partially controlled”.

**Q.** And the intolerance ([3]; dog, in vivo)?
**A.** Its intolerance is “signs of intolerance”.

From US20110262552A1, “Compositions Comprising Plant Extracts and Use Thereof for Treating Inflammation” (priority 2008, published 2011)
